Test results from article PMC5962653 (Frontiers in Microbiology, 2018).
Values after ≈ are worked out from the molar mass of the structure shown. Positions of bridges follow the written chain, without caps; N, C: chain ends. Non-standard residues stand in square brackets, D forms with d. Residues, ends and D or L forms follow the SMILES beside them. *: point of attachment. X1 = CC[C@H](C)CCCCC(=O)*; Dab = NCC[C@H](N)C(=O)O

Legend:
Assay type in all cases: cell-based, Klebsiella pneumoniae
[1] = tested on: K. pneumoniae VIM-1 producer (colistin-susceptible); experiment: In vitro selection of colistin-resistant mutants (time-kill curves); conditions: exposure at the MIC (0.5 mg/L) during 24 h in time-kill curves; sub-cultured twice antimicrobial free; increased from 0.5 mg/L
Method: (§1) MICs determinations of colistin and rifampin were carried out in triplicate.

[2] = tested on: K. pneumoniae OXA-48 plus CTX-M-15 producer (colistin-susceptible); experiment: as above; conditions: exposure at the MIC (0.5 mg/L) during 24 h in time-kill curves; sub-cultured twice antimicrobial free; increased from 0.5 mg/L
Method: as §1

[3] = tested on: K. pneumoniae Kp29, KPC-3 producer; experiment: MIC by broth microdilution (agar dilution for fosfomycin); conditions: for MIC: broth microdilution
Description: (§2) Four genetically unrelated clinical isolates of CP-Kp were studied: Kp07, a VIM-1 ST 1603 clone producer ([Miro et al., 2013]); Kp21, which co-produced VIM-1 and the acquired AmpC type beta-lactamase DHA-1 ST 11 clone ([Miro et al., 2013]); Kp28, co-producing OXA-48 ST11 clone and the extended spectrum beta-lactamase (ESBL) CTX-M-15 ([Oteo et al., 2015]); and Kp29, co-producing KPC-3 ST512 clone with the broad spectrum beta-lactamases TEM-1 and SHV-11 ([Lopez-Cerero et al., 2014]), thereinafter VIM-1, VIM-1/DHA-1, OXA-48 plus CTX-M-15, and KPC-3 producers, respectively. Identification of these isolates was confirmed by a Microflex LT-MALDI Biotyper mass spectrometer (Bruker Daltonics GmbH, Bremen, Germany). The presence of carbapenemase genes, and genes coding for other beta-lactamases was confirmed by PCR and sequencing as described previously. The absence of genetic relation among the isolates was confirmed by PFGE analysis of chromosomal restriction fragments obtained after XbaI cleavage following the criteria of [Tenover et al. (1995)]. […] The antibiotic susceptibility profiles are included in the Supplementary Information.
(§3) MICs of antibiotics were determined by broth microdilution as recommended by the [Clinical and Laboratory Standards Institute [CLSI] (2012)], using Mueller Hinton broth II (MHB) (Becton Dickinson & Co., Sparks, MD, United States) and agar dilution method for fosfomycin. MIC results were interpreted according to the [European Committee on Antimicrobial Susceptibility Testing [EUCAST] (2016)]^1 breakpoints. Studies were performed in triplicate.

[4] = tested on: K. pneumoniae Kp28, OXA-48 plus CTX-M-15 producer; experiment: as above; conditions: for MIC: broth microdilution
Description: as §2, §3

[5] = tested on: K. pneumoniae Kp21, VIM-1/DHA-1 producer; experiment: as above; conditions: for MIC: broth microdilution
Description: as §2, §3

[6] = tested on: K. pneumoniae Kp07, VIM-1 producer; experiment: as above; conditions: for MIC: broth microdilution
Description: as §2, §3

[7] = tested on: K. pneumoniae VIM-1/DHA-1 producer; conditions: colistin 2 mg/L (EUCAST breakpoint), rifampin 2 mg/L, alone or combined; inoculum 1 × 10^6 cfu/mL, 37°C, samples 0-24 h; three experiments
Method: (§4) (2016)]. […] Tubes were incubated at 37°C, with shaking, and samples were taken at 0, 1, 3, 6, and 24 h, serially diluted and plated using a spiral platter (Eddy Jet, IUL S.A., Barcelona, Spain). Bacterial colonies were counted using an automatic counter (Flash & Go, IUL S.A., Barcelona, Spain) ([Pournaras et al., 2011]; [Souli et al., 2011]). Experiments were performed three times on separate occasions. […] Bactericidal activities of single antibiotics or combination were defined as a decrease ≥ 3 log10 cfu/mL from the starting inoculum ([Souli et al., 2009]). Studies were performed in triplicate.
(§5) The RIF concentration used for all strains was 2 mg/L. RIF, filled circles; CST, filled squares; combination of both antimicrobials, filled triangles.

[8] = tested on: K. pneumoniae VIM-1 producer
Method: as §4, §5

[9] = tested on: K. pneumoniae OXA-48 plus CTX-M-15 producer; conditions: at 24 h; colistin 0.5 mg/L
Method: as §4, §5

[10] = tested on: K. pneumoniae KPC-3 producer; conditions: colistin 2 mg/L (EUCAST breakpoint), rifampin 2 mg/L, alone or combined; inoculum 1 × 10^6 cfu/mL, 37°C, samples 0-24 h; three experiments
Method: as §4, §5

[11] = Table 1, Mueller Hinton broth II, CLSI, triplicate

SMILES: CC[C@H](C)CCCCC(=O)N[C@@H](CCN)C(=O)N[C@H](C(=O)N[C@@H](CCN)C(=O)N[C@H]1CCNC(=O)[C@H]([C@@H](C)O)NC(=O)[C@H](CCN)NC(=O)[C@H](CCN)NC(=O)[C@H](CC(C)C)NC(=O)[C@@H](CC(C)C)NC(=O)[C@H](CCN)NC1=O)[C@@H](C)O [Colistin, colistin] (X1-[Dab]T[Dab][Dab][Dab][dL]L[Dab][Dab]T; lactam 4-C (inferred); N-terminus assumed)
- Colistin MIC of colonies recovered after exposure to colistin [1]: > 8 µg/mL
- Colistin MIC of colonies recovered after exposure to colistin [2]: > 8 µg/mL
- MIC [3, 11]: 32 [^∗∗] mg/L
- SIR, classification according to EUCAST definitions ([3]; supplement table, strain KPc29, EUCAST 2016 breakpoints, fosfomycin by agar dilution): R
- MIC ([3]; supplement table, strain KPc29): > 32 mg/L
- MIC [4, 11]: 0.5 [^∗] mg/L
- SIR, classification according to EUCAST definitions ([4]; supplement table, strain KPc28, EUCAST 2016 breakpoints, fosfomycin by agar dilution): S
- MIC ([4]; supplement table, strain KPc28): 0.5 mg/L (≈ 0.428 µM)
- MIC [5, 11]: 64 [^∗∗] mg/L
- SIR, classification according to EUCAST definitions ([5]; supplement table, strain KPc21, EUCAST 2016 breakpoints, fosfomycin by agar dilution): R
- MIC ([5]; supplement table, strain KPc21): > 32 mg/L
- MIC [6, 11]: 0.5 [^∗] mg/L
- SIR, classification according to EUCAST definitions ([6]; supplement table, strain KPc07, EUCAST 2016 breakpoints, fosfomycin by agar dilution): S
- MIC ([6]; supplement table, strain KPc07): 0.5 mg/L (≈ 0.428 µM)
- Bactericidal activity in time-kill curves (decrease ≥ 3 log10 cfu/mL from the starting inoculum) [7]: did not display any bactericidal activity
- Regrowth in time-kill curves ([8]; at 24 h, colistin 0.5 mg/L): important regrowth at 24 h
- Bactericidal activity in time-kill curves (decrease ≥ 3 log10 cfu/mL from the starting inoculum) ([8]; colistin 0.5 mg/L (MIC), rifampin 2 mg/L, alone or combined, inoculum 1 × 10^6 cfu/mL, 37°C, samples 0-24 h, three experiments): bactericidal at 3 h
- Regrowth in time-kill curves [9]: important regrowth at 24 h
- Bactericidal activity in time-kill curves (decrease ≥ 3 log10 cfu/mL from the starting inoculum) [10]: did not display any bactericidal activity
